# Assay results published in patent US10208033B2, “β-carboline, dihydro-β-carboline and tetrahydro-β-carboline alkaloid derivatives and preparation methods same and use in aspects of preventing and treating plant viruses, fungicides and insecticides” (NANKAI UNIVERSITY, priority 2013, dated 2019).
# How the values were obtained:
# Macrophoma kawatsukai = test: Fungicidal (bactericidal) activity in vitro, PDA colony diameter; assay type: cell-based; conditions: 50 mg/kg
# Rhizoctonia cereali = test: as above; assay type: cell-based; conditions: 50 mg/kg
# Sclerotinia scleotiorum = test: as above; assay type: cell-based; conditions: 50 mg/kg
# armyworms = assay type: in vivo; conditions: concentration 600 mg/kg
# [1] = test system: Colletotrichum orbiculare; test: Fungicidal (bactericidal) activity in vitro, PDA colony diameter; assay type: cell-based; conditions: 50 mg/kg
# cucumber fusarium wilt = test: as above; assay type: cell-based; conditions: 50 mg/kg
# [2] = test system: tobacco mosaic virus (TMV); test: Anti-TMV in vivo inactivation; set-up: species or system tobacco mosaic virus (host Nicotiana tabacum L.cv.Xanthi NN)
# corn borers = conditions: concentration 600 mg/kg
# Botrytis cinerea = test: Fungicidal (bactericidal) activity in vitro, PDA colony diameter; assay type: cell-based; conditions: 50 mg/kg
# Alternaria solani = test: as above; assay type: cell-based; conditions: 50 mg/kg
# Bipolaria maydis = test: organism not typed; assay type: cell-based; conditions: 50 mg/kg
# potato late blight = test: microbe, parasite or virus in culture; assay type: cell-based
# cotton bollworms = test: whole plant or invertebrate; conditions: concentration 600 mg/kg
# Protocol: Experimental method of cotton bollworms: feed and drug mixing method: measure 3 mL of prepared solution and add it to about 27 g of newly prepared feed, thereby obtaining needed concentration through dilution by 10 times.
# Fusarium graminearumt = test: microbe, parasite or virus in culture; assay type: cell-based; conditions: 50 mg/kg
# Cercospora arachidicola = test: Fungicidal (bactericidal) activity in vitro, PDA colony diameter; assay type: cell-based; conditions: 50 mg/kg
# Rhizoctonia solani = test: as above; assay type: cell-based; conditions: 50 mg/kg
# [3] = test system: tobacco mosaic virus (TMV); test: Anti-TMV in vivo therapeutic effect; set-up: species or system tobacco mosaic virus (host Nicotiana tabacum L.cv.Xanthi NN)
# [4] = test system: tobacco mosaic virus (TMV); test: Anti-TMV in vitro effect (half-leaf soaking); assay type: cell-based, tobacco mosaic virus (host Nicotiana tabacum L.cv.Xanthi NN)
# Fusarium fujikuroi = test: Fungicidal (bactericidal) activity in vitro, PDA colony diameter; assay type: cell-based; conditions: 50 mg/kg
# Phytophthora capsici = test: as above; assay type: cell-based; conditions: 50 mg/kg
# [5] = test system: tobacco mosaic virus (TMV); test: Anti-TMV in vivo protective effect; set-up: species or system tobacco mosaic virus (host Nicotiana tabacum L.cv.Xanthi NN)
# mosquito larvae = test: whole plant or invertebrate; conditions: concentration 10 mg/kg, 24 h
# In short: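 Early fourth-instar Culex pipiens pallens larvae from an indoor colony, 10 per beaker, exposed to test compound at 5 ppm in water, diluted from a 1000 ppm acetone mother solution. Blank: water containing 0.5 mL test solvent.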
Compound,Bactericidal activity (%) Macrophoma kawatsukai (Macrophoma kawatsukai) [%],Bactericidal activity (%) Rhizoctonia cereali (Rhizoctonia cereali) [%],Bactericidal activity (%) Sclerotinia scleotiorum (Sclerotinia scleotiorum) [%],Armyworm Mortality (%) (armyworms),Bactericidal activity (%) Colletotrichum orbiculare [1] [%],Bactericidal activity (%) Cucumber fusarium wilt (cucumber fusarium wilt) [%],Relative inhibition rate (%) In vivo inactivation ([2]; treatment dose 100 μg/mL) [%],Relative inhibition rate (%) In vivo inactivation ([2]; treatment dose 500 μg/mL) [%],Corn borer Mortality (%) (corn borers),Bactericidal activity (%) Botrytis cinerea (Botrytis cinerea) [%],Bactericidal activity (%) Alternaria solani (Alternaria solani) [%],Bactericidal activity (%) Bipolaria maydis (Bipolaria maydis) [%],Bactericidal activity (%) potato late blight (potato late blight) [%],Cotton bollworm Mortality (%) (cotton bollworms),Bactericidal activity (%) Fusarium graminearumt (Fusarium graminearumt) [%],Bactericidal activity (%) Cercospora arachidicola (Cercospora arachidicola) [%],Bactericidal activity (%) Rhizoctonia solani (Rhizoctonia solani) [%],Relative inhibition rate (%) In vivo therapy ([3]; treatment dose 100 μg/mL) [%],Relative inhibition rate (%) In vivo therapy ([3]; treatment dose 500 μg/mL) [%],Relative inhibition rate (%) In vitro activity ([4]; treatment dose 100 μg/mL) [%],also measured
"COc1cccc(C=NNC(=O)[C@@H]2Cc3c([nH]c4ccccc34)[C@H](C)N2)c1 [Ic-9, (1S, 3S)—N′-(3-methoxybenzylidene)-1-methyl-2,3,4,9-tetrahydropyridino [3,4-b] indol-3-formylhydrazine]",69.4,92.2,88.2,35,40.7,34.6,22.1,59.2,40,68.2,65.0,48.0,40.0,30,41.4,58.8,68.4,16.5,54,13.2,Relative inhibition rate (%) In vitro activity ([4]; treatment dose 500 μg/mL): 53.2%; Bactericidal activity (%) Fusarium fujikuroi (Fusarium fujikuroi): 57.1%; Bactericidal activity (%) Phytophthora capsici (Phytophthora capsici): 81.6%; Relative inhibition rate (%) In vivo protection ([5]; treatment dose 100 μg/mL): 20.6%; Relative inhibition rate (%) In vivo protection ([5]; treatment dose 500 μg/mL): 54.7%; Mosquito larvae Mortality (%) (mosquito larvae): 75%
"COc1ccccc1C=NNC(=O)[C@@H]1Cc2c([nH]c3ccccc23)[C@H](C)N1 [Ic-10, (1S, 3S)—N′-(2-methoxybenzylidene)-1-methyl-2,3,4,9-tetrahydropyridino [3,4-b] indol-3-formylhydrazine]",88.9,78.4,64.7,25,40.7,26.9,0,43.2,30,77.3,45.0,56.0,44.0,30,72.4,23.5,32.9,10.9,36.4,0,Relative inhibition rate (%) In vitro activity ([4]; treatment dose 500 μg/mL): 38.5%; Bactericidal activity (%) Fusarium fujikuroi (Fusarium fujikuroi): 21.4%; Bactericidal activity (%) Phytophthora capsici (Phytophthora capsici): 63.2%; Relative inhibition rate (%) In vivo protection ([5]; treatment dose 100 μg/mL): 0%; Relative inhibition rate (%) In vivo protection ([5]; treatment dose 500 μg/mL): 34.8%; Mosquito larvae Mortality (%) (mosquito larvae): 50%
C[C@@H]1N[C@H](C(=O)NN=Cc2ccc3c(c2)OCCO3)Cc2c1[nH]c1ccccc21 [Ic-13],66.7,89.2,21.2,30,72.0,22.7,15.2,43.6,35,66.7,52.4,52.0,30.4,15,30.8,45.5,44.4,18.6,48.1,19.8,Relative inhibition rate (%) In vitro activity ([4]; treatment dose 500 μg/mL): 46.5%; Bactericidal activity (%) Fusarium fujikuroi (Fusarium fujikuroi): 47.1%; Bactericidal activity (%) Phytophthora capsici (Phytophthora capsici): 84.8%; Relative inhibition rate (%) In vivo protection ([5]; treatment dose 100 μg/mL): 10.3%; Relative inhibition rate (%) In vivo protection ([5]; treatment dose 500 μg/mL): 46%; Mosquito larvae Mortality (%) (mosquito larvae): 60%
"C[C@@H]1N[C@H](C(=O)NN=Cc2ccc3cc(O)ccc3c2)Cc2c1[nH]c1ccccc21 [Ic-14, (1S, 3S)—N′-(6-hydroxynaphthalene-2-methylene)-1-methyl-2,3,4,9-tetrahydropyridino [3,4-b] indol-3-formylhydrazine]",77.8,86.3,88.2,40,48.1,19.2,16.9,45.6,45,72.7,30.0,56.0,44.0,35,10.3,47.1,28.9,8.2,43.9,0,Relative inhibition rate (%) In vitro activity ([4]; treatment dose 500 μg/mL): 40.9%; Bactericidal activity (%) Fusarium fujikuroi (Fusarium fujikuroi): 28.6%; Bactericidal activity (%) Phytophthora capsici (Phytophthora capsici): 84.2%; Relative inhibition rate (%) In vivo protection ([5]; treatment dose 100 μg/mL): 0%; Relative inhibition rate (%) In vivo protection ([5]; treatment dose 500 μg/mL): 47.8%; Mosquito larvae Mortality (%) (mosquito larvae): 75%
